Measurements as given in publication PMC6522941, “Design, synthesis, and anticancer evaluation of novel quinoline derivatives of ursolic acid with hydrazide, oxadiazole, and thiadiazole moieties as potent MEK inhibitors” (Journal of Enzyme Inhibition and Medicinal Chemistry, 2019).

How the values were obtained:
MDA-MB-231 cells = test: MTT cytotoxic assay, MDA-MB-231; format: cell-based, human; conditions: Homo sapiens, MDA-MB-231, 72 h
Description: (§1) Human breast cancer cell line (MDA-MB-231), cervical carcinoma cell line (HeLa), the liver cancer cell line (SMMC-7721) and normal hepatocyte cell line (QSG-7701) were maintained in Dulbecco Modified Eagle Medium (DMEM) containing 4.0 mM L-Glutamine and 4500 mg/L Glucose supplemented with 10% (v/v) foetal bovine serum (FBS) and 100 U/mL penicillin/streptomycin at 37 °C in humidified atmosphere of 5% CO2 and 95% air.
(§2) Exponentially growing MDA-MB-231, Hela and SMMC-7721 cell lines were seeded into 96-well plate for 100 μL and treated with different concentrations of the synthetic compounds for 72 h, and then 10 μL of MTT (10 mg/mL) was added and incubation for 3 ∼ 4 h at 37 °C. The generated purple formazan crystals from viable can be dissolved by adding 100 μL DMSO. The plates were swirled gently for 5 min and quantified by measuring the OD of the plates at the wavelength of 540 nm. Each concentration was repeated in three wells and the same experimental condition was provided for all compounds. The results were expressed as IC50 values with standard deviations, which was defined as the concentration at which 50% survival of cells was discerned. Etoposide was co-assayed as positive control.
(§3) The in vitro cytotoxic activity of derivatives 3a–d, 4a–h, 5a–h, and 6a–h were evaluated by MTT assay against human breast cancer cell line (MDA-MB-231), cervical carcinoma cell line (HeLa), hepatocarcinoma cell line (SMMC-7721) and human normal hepatocyte cell line (QSG-7701). The anticancer drug etoposide was co-assayed as the positive control. All tested compounds were dissolved in DMSO and the stock solutions were diluted by DMEM medium before treatment of the cultured cells.

SMMC-7721 cells = test: MTT cytotoxic assay, SMMC-7721; format: cell-based; conditions: Homo sapiens, 72 h
Description: as §1, §2, §3

HeLa cells = test: MTT cytotoxic assay, HeLa; format: cell-based; conditions: Homo sapiens, 72 h
Description: as §1, §2, §3

QSG-7701 cells = test: MTT cytotoxic assay, normal hepatocyte QSG-7701; format: cell-based, human; conditions: for IC50: Homo sapiens, QSG7701, MTT, normal hepatocyte cell line; for Selectivity: IC50 (QSG-7701)/IC50 (HeLa)
Description: as §1, §2, §3

## C[C@H]1[C@H](C)CC[C@]2(C(=O)O)CC[C@]3(C)C(=CC[C@@H]4[C@@]5(C)CC[C@H](O)C(C)(C)[C@@H]5CC[C@]43C)[C@H]12 [Compound 1, Ursolic acid]
MDA-MB-231 cells
  IC50: > 50 µM
SMMC-7721 cells
  IC50: > 50 µM
HeLa cells
  IC50: > 50 µM

## C[C@@H]1CC[C@]2(C(=O)O)CC[C@]3(C)C(=CCC4[C@@]5(C)CCC(=O)C(C)(C)C5CC[C@]43C)C2[C@H]1C (stereo partly drawn) [Compound 2, 3-oxo-ursolic acid]
MDA-MB-231 cells
  IC50: > 50 µM
SMMC-7721 cells
  IC50: > 50 µM
HeLa cells
  IC50: > 50 µM

## CCCCC(=O)NNC(=O)[C@]12CC[C@@H](C)[C@H](C)C1C1=CCC3[C@@]4(C)Cc5cc6ccccc6nc5C(C)(C)C4CC[C@@]3(C)[C@]1(C)CC2 (stereo partly drawn) [Compound 4e, N-[ursa-12-en-(2,3)-quinoline-28-oyl]-pentanehydrazide]
MDA-MB-231 cells
  IC50: > 50 µM
SMMC-7721 cells
  IC50: > 50 µM
HeLa cells
  IC50: > 50 µM

## CCCCC(=O)NNC(=O)[C@]12CC[C@@H](C)[C@H](C)C1C1=CCC3[C@@]4(C)Cc5cc6cc(OC)ccc6nc5C(C)(C)C4CC[C@@]3(C)[C@]1(C)CC2 (stereo partly drawn) [Compound 4f, N-[5′-methoxy-ursa-12-en-(2,3)-quinoline-28-oyl]-pentanehydrazide]
MDA-MB-231 cells
  IC50: > 50 µM
SMMC-7721 cells
  IC50: > 50 µM
HeLa cells
  IC50: > 50 µM

## CCCCC(=O)NNC(=O)[C@]12CC[C@@H](C)[C@H](C)C1C1=CCC3[C@@]4(C)Cc5cc6cc(F)ccc6nc5C(C)(C)C4CC[C@@]3(C)[C@]1(C)CC2 (stereo partly drawn) [Compound 4g, N-[5′-fluoro-ursa-12-en-(2,3)-quinoline-28-oyl]-pentanehydrazide]
MDA-MB-231 cells
  IC50: > 50 µM
SMMC-7721 cells
  IC50: > 50 µM
HeLa cells
  IC50: > 50 µM

## CCCCC(=O)NNC(=O)[C@]12CC[C@@H](C)[C@H](C)C1C1=CCC3[C@@]4(C)Cc5cc6cc(Cl)ccc6nc5C(C)(C)C4CC[C@@]3(C)[C@]1(C)CC2 (stereo partly drawn) [Compound 4h, N-[5′-chloro-ursa-12-en-(2,3)-quinoline-28-oyl]-pentanehydrazide]
MDA-MB-231 cells
  IC50: > 50 µM
SMMC-7721 cells
  IC50: > 50 µM
HeLa cells
  IC50: 46 ± 0.91 µM

## COc1ccc2nc3c(cc2c1)CC1(C)C(CCC2(C)C1CC=C1C4C(C)C(C)CCC4(c4nnc(C)o4)CCC12C)C3(C)C (stereo not drawn) [Compound 5b, N-[5′-methoxy-ursa-12-en-(2,3)-quinoline-28-oyl]-5-methyl-1,3,4-oxadiazole]
MDA-MB-231 cells
  IC50: 12.25 ± 0.12 µM
SMMC-7721 cells
  IC50: > 50 µM
QSG-7701 cells
  IC50: > 50 µM
  Selectivity: 5.6
HeLa cells
  IC50: 16.8 ± 0.34 µM

## Cc1nnc([C@]23CC[C@@H](C)[C@H](C)C2C2=CCC4[C@@]5(C)Cc6cc7cc(F)ccc7nc6C(C)(C)C5CC[C@@]4(C)[C@]2(C)CC3)o1 (stereo partly drawn) [Compound 5c, N-[5′-fluoro-ursa-12-en-(2,3)-quinoline-28-oyl]-5-methyl-1,3,4-oxadiazole]
MDA-MB-231 cells
  IC50: 13.2 ± 0.58 µM
SMMC-7721 cells
  IC50: > 50 µM
QSG-7701 cells
  IC50: > 50 µM
  Selectivity: 3.6
HeLa cells
  IC50: 33.8 ± 0.95 µM

## CCCCc1nnc([C@]23CC[C@@H](C)[C@H](C)C2C2=CCC4[C@@]5(C)Cc6cc7ccccc7nc6C(C)(C)C5CC[C@@]4(C)[C@]2(C)CC3)o1 (stereo partly drawn) [Compound 5e, N-2-[ursa-12-en-(2,3)-quinoline-28-oyl]-5-butyl-1,3,4-oxadiazole]
MDA-MB-231 cells
  IC50: > 50 µM
SMMC-7721 cells
  IC50: > 50 µM
HeLa cells
  IC50: > 50 µM

## CCCCc1nnc([C@]23CC[C@@H](C)[C@H](C)C2C2=CCC4[C@@]5(C)Cc6cc7cc(OC)ccc7nc6C(C)(C)C5CC[C@@]4(C)[C@]2(C)CC3)o1 (stereo partly drawn) [Compound 5f, N-[5′-methoxy-ursa-12-en-(2,3)-quinoline-28-oyl]-5-butyl-1,3,4-oxadiazole]
MDA-MB-231 cells
  IC50: > 50 µM
SMMC-7721 cells
  IC50: > 50 µM
HeLa cells
  IC50: 30.9 ± 1.14 µM

## CCCCc1nnc([C@]23CC[C@@H](C)[C@H](C)C2C2=CCC4[C@@]5(C)Cc6cc7cc(F)ccc7nc6C(C)(C)C5CC[C@@]4(C)[C@]2(C)CC3)o1 (stereo partly drawn) [Compound 5g, N-[5′-fluoro-ursa-12-en-(2,3)-quinoline-28-oyl]-5-butyl-1,3,4-oxadiazole]
MDA-MB-231 cells
  IC50: > 50 µM
SMMC-7721 cells
  IC50: > 50 µM
HeLa cells
  IC50: > 50 µM

## CCCCc1nnc([C@]23CC[C@@H](C)[C@H](C)C2C2=CCC4[C@@]5(C)Cc6cc7cc(Cl)ccc7nc6C(C)(C)C5CC[C@@]4(C)[C@]2(C)CC3)o1 (stereo partly drawn) [Compound 5h, N-[5′-chloro-ursa-12-en-(2,3)-quinoline-28-oyl]-5-butyl-1,3,4-oxadiazole]
MDA-MB-231 cells
  IC50: > 50 µM
SMMC-7721 cells
  IC50: > 50 µM
HeLa cells
  IC50: > 50 µM

## Cc1nnc([C@]23CC[C@@H](C)[C@H](C)C2C2=CCC4[C@@]5(C)Cc6cc7ccccc7nc6C(C)(C)C5CC[C@@]4(C)[C@]2(C)CC3)s1 (stereo partly drawn) [Compound 6a]
MDA-MB-231 cells
  IC50: 18.8 ± 1.38 µM
SMMC-7721 cells
  IC50: > 50 µM
QSG-7701 cells
  IC50: > 50 µM
  Selectivity: 4.8
HeLa cells
  IC50: 27.3 ± 1.91 µM

## COc1ccc2nc3c(cc2c1)CC1(C)C(CCC2(C)C1CC=C1C4C(C)C(C)CCC4(c4nnc(C)s4)CCC12C)C3(C)C (stereo not drawn) [Compound 6b]
MDA-MB-231 cells
  IC50: 15.7 ± 2.01 µM
SMMC-7721 cells
  IC50: > 50 µM
QSG-7701 cells
  IC50: > 50 µM
  Selectivity: 8.5
HeLa cells
  IC50: 12.8 ± 1.32 µM

## Cc1nnc([C@]23CC[C@@H](C)[C@H](C)C2C2=CCC4[C@@]5(C)Cc6cc7cc(F)ccc7nc6C(C)(C)C5CC[C@@]4(C)[C@]2(C)CC3)s1 (stereo partly drawn) [Compound 6c]
MDA-MB-231 cells
  IC50: 31.6 ± 2.7 µM
SMMC-7721 cells
  IC50: > 50 µM
QSG-7701 cells
  IC50: > 50 µM
  Selectivity: 2.8
HeLa cells
  IC50: > 50 µM

## CCCCc1nnc([C@]23CC[C@@H](C)[C@H](C)C2C2=CCC4[C@@]5(C)Cc6cc7ccccc7nc6C(C)(C)C5CC[C@@]4(C)[C@]2(C)CC3)s1 (stereo partly drawn) [Compound 6e, N-2-[ursa-12-en-(2,3)-quinoline-28-oyl]-5-butyl-1,3,4-thiadiazole]
MDA-MB-231 cells
  IC50: > 50 µM
SMMC-7721 cells
  IC50: > 50 µM
HeLa cells
  IC50: > 50 µM

## CCCCc1nnc([C@]23CC[C@@H](C)[C@H](C)C2C2=CCC4[C@@]5(C)Cc6cc7cc(OC)ccc7nc6C(C)(C)C5CC[C@@]4(C)[C@]2(C)CC3)s1 (stereo partly drawn) [Compound 6f, N-2-[5′-methoxy-ursa-12-en-(2,3)-quinoline-28-oyl]-5-butyl-1,3,4-thiadiazole]
MDA-MB-231 cells
  IC50: > 50 µM
SMMC-7721 cells
  IC50: > 50 µM
HeLa cells
  IC50: > 50 µM

## CCCCc1nnc([C@]23CC[C@@H](C)[C@H](C)C2C2=CCC4[C@@]5(C)Cc6cc7cc(Cl)ccc7nc6C(C)(C)C5CC[C@@]4(C)[C@]2(C)CC3)s1 (stereo partly drawn) [Compound 6h, N-2-[5′-chloro-ursa-12-en-(2,3)-quinoline-28-oyl]-5-butyl-1,3,4-thiadiazole]
MDA-MB-231 cells
  IC50: > 50 µM
SMMC-7721 cells
  IC50: > 50 µM
HeLa cells
  IC50: > 50 µM

## COc1cc([C@@H]2c3cc4c(cc3[C@@H](O[C@@H]3O[C@@H]5CO[C@@H](C)O[C@H]5[C@H](O)[C@H]3O)[C@H]3COC(=O)[C@H]23)OCO4)cc(OC)c1O [Etoposide, reference compound]
MDA-MB-231 cells
  IC50: 5.26 ± 1.21 µM
SMMC-7721 cells
  IC50: 3.48 ± 0.35 µM
QSG-7701 cells
  IC50: 28.8 ± 3.28 µM
  Selectivity: 9.6
HeLa cells
  IC50: 2.98 ± 0.42 µM
